The results in this text go back to US5565342A (priority 1989, dated 1996).

In assay [1] the test system is RON substance synthetase. Nature of the assay: Substrate specificity of the enzyme. In kind it is biochemical, Leuconostoc mesenteroides subsp. dextranicum, BL-75. Conditions: as substrate of the enzyme.
For assay [2], the system named is RON substance synthetase. Nature of the assay: Inhibition and activation of the enzyme by metal chlorides. The assay is classed as biochemical, Leuconostoc mesenteroides subsp. dextranicum, BL-75. The conditions noted are these: 1 mM metal chloride; not added = 100; 30 min. As to the method: A substrate solution comprising sucrose (60 w/v %) and an acetate buffer (0.3M, pH 5.5), which was warmed to 30° C. in advance, was mixed with an enzyme solution (0.5 to 1 U/ml) warmed to 30° C. in an amount 4 times the amount of the substrate solution, and the mixture was sufficiently stirred and the reaction was carried out at 30° C. for 30 minutes. To the reaction mixture a 40 mM of NaOH solution was added in an amount 5 times of the amount of the reaction mixture to stop the reaction. The reaction-stopped mixture was appropriately diluted and reducing sugar was determined as fructose by the Somogyi method [M. Somogyi, J. Biol. Chem., 160, 61 (1945)]. As the control, reducing sugar in the enzyme reaction-stopped mixture treated in the same manner without adding sucrose was determined as fructose, and correction was carried out. The quantity of sucrose participating in the reaction was determined from the quantity of fructose.
The relative activities at the addition of the different metal chlorides in the final concentration of 1 mM were determined by the standard method. The relative value was expressed in percent comparing with the activity without addition of any metal chloride.

Regarding `OC[C@H]1O[C@H](O[C@H]2[C@H](O)[C@@H](O)C(O)O[C@@H]2CO)[C@H](O)[C@@H](O)[C@@H]1O` (mixture of isomers) [maltose], the “Formation of the RON substance (substrate specificity)” value with RON substance synthetase [1] was “not observed”.
In the case of `[Ca+2].[Cl-].[Cl-]` [CaCl2], the “Relative Activity” value with RON substance synthetase [2] was 110%.
`[Cl-].[Cl-].[Co+2]` [CoCl2]: the “Relative Activity” value in the assay on RON substance synthetase [2] is recorded as 95%.
Still for that read-out and setting: the result for `[Cl][Cu][Cl]` [CuCl2] reads 50%; that for `[Cl][Fe][Cl]` [FeCl2], 103%.
With `[Cl][Fe]([Cl])[Cl]` [FeCl3], the “Relative Activity” value in the assay with RON substance synthetase [2] worked out at 82%.
Same read-out and setting: then `[Cl-].[Cl-].[Mg+2]` [MgCl2], with 78%; and `[Cl][Mn][Cl]` [MnCl2], with 75%; and `[Cl][Ni][Cl]` [NiCl2], with 98%.
With `[Cl-].[Cl-].[Zn+2]` [ZnCl2], the “Relative Activity” value in the assay with RON substance synthetase [2] turned out to be 93%.
Consider `O=C(CO)[C@@H](O)[C@H](O)[C@H](O)CO` [fructose], for which the “Formation of the RON substance (substrate specificity)” value in the assay with RON substance synthetase [1] is given as “not observed”.
The same measure, in the same setting: the result for `OC[C@H]1OC(O)[C@H](O)[C@@H](O)[C@@H]1O` (some centres unmarked) [glucose] reads “not observed”; that for `OC[C@H]1O[C@H](OC[C@H]2OC(O)[C@H](O)[C@@H](O)[C@@H]2O)[C@H](O)[C@@H](O)[C@@H]1O` (some centres unmarked) [isomaltose], “not observed”; that for `OC[C@H]1O[C@@](CO)(O[C@H]2O[C@H](CO)[C@@H](O)[C@H](O)[C@H]2O)[C@@H](O)[C@@H]1O` [sucrose], “reacts only with sucrose”.
